Reference: patent US20250296959A1, “B7-H3 TARGETING PEPTIDES AND CONSTRUCTS THEREOF” (Mariana Oncology Inc., priority 2024, published 2025)
Where two headings read alike, the source gives them in different places. Starred links: 1 amine or outer side, 2 acyl side, 3 side chain; linkers in the order of their positions; H or OH if unused. Positions of bridges follow the written chain, without caps; N, C: chain ends. Non-standard residues stand in square brackets, D forms with d. Residues, ends and D or L forms follow the SMILES beside them. Groups on a side chain read outwards from the residue. *: point of attachment. Ala(1-CH2CO2H-4-piperidyl) = N[C@@H](CC1CCN(CC(=O)O)CC1)C(=O)O; Ala(piperidin-4-yl) = O=C([C@H](CC1CCN([*:3])CC1)N[*:1])[*:2]; DOTA = O=C(O)CN1CCN(CC(=O)O)CCN(CC(=O)*)CCN(CC(=O)O)CC1; Phe(4-COOH) = N[C@@H](Cc1ccc(C(=O)O)cc1)C(=O)O; Trp(5-F) = N[C@@H](Cc1c[nH]c2ccc(F)cc12)C(=O)O; X1 = C[C@@H](c1ccccc1)[C@H](N[*:1])C(=O)[*:2]; 1Nal = N[C@@H](Cc1cccc2ccccc12)C(=O)O; Val(3-OH) = CC(C)(O)[C@H](N)C(=O)O; 4Pal = N[C@@H](Cc1ccncc1)C(=O)O; PEG4 = NCCOCCOCCOCCOCCC(=O)O; Tle = CC(C)(C)[C@H](N)C(=O)O; hLeu = CC(C)CC[C@H](N)C(=O)O

T1: human 4lg B7-H3 (Homo sapiens, UniProt Q5ZPR3)
T1 sequence (Q5ZPR3 29-534): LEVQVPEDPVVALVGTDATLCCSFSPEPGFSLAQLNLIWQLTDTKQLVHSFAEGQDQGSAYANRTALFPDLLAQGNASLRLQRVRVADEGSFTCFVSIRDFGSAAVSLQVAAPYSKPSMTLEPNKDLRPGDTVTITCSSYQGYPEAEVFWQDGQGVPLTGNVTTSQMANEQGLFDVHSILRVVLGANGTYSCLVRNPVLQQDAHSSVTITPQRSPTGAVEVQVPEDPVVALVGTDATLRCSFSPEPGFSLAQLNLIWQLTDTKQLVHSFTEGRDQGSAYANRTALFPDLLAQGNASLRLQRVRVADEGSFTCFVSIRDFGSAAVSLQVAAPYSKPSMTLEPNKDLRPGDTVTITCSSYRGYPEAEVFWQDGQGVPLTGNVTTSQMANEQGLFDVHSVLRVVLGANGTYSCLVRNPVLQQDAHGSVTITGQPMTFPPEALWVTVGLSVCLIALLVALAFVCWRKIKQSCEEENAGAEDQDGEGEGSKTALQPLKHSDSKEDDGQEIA

T2: 2Ig B7-H3 (Homo sapiens, UniProt Q5ZPR3)
T2 sequence (Q5ZPR3 29-316 isoform Q5ZPR3-2 limits assumed): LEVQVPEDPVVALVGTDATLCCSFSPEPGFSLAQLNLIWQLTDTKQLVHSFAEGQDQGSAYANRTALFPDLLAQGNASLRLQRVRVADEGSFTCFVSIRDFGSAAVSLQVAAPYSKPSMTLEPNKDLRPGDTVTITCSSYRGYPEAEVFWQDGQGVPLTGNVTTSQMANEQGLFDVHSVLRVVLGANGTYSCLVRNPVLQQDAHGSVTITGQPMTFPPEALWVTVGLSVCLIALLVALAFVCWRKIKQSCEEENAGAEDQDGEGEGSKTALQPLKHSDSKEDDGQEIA

T3: B7-H3 on Calu-6 cells (human, UniProt Q5ZPR3 29-534)
T3 construct: whole, on cells
T3 sequence (looked up): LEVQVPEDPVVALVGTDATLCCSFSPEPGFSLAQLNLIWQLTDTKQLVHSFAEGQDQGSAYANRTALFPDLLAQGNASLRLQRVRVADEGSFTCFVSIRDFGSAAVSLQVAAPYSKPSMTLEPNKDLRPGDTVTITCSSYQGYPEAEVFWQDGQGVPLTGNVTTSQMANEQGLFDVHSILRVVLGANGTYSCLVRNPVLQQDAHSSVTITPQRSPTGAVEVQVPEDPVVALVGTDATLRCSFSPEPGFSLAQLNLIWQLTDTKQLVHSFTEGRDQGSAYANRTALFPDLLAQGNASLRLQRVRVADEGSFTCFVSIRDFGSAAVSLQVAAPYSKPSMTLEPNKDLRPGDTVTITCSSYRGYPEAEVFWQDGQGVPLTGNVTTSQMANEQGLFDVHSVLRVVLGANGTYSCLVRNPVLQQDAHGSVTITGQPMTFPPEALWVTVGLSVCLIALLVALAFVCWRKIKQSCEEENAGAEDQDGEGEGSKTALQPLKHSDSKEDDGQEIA


Tests used:
human 4lg B7-H3 = biological target: T1, human 4lg B7-H3; experiment: Affinity determination by surface plasmon resonance (SPR) to 4Ig B7-H3
Calu-6 tumors = experiment: Ex vivo biodistribution of radiolabeled peptides in nude mice bearing Calu-6 tumors; settings: [177Lu]Lu labeling, 24 h post-injection
Protocol: Mice were euthanized at pre-determined time points and selected tissues were resected and collected into pre-weighed tubes. The tubes were then reweighed post resection, the difference giving the weight of each tissue. Radioactivity in each tissue was measured using a gamma counter. Counts were decay corrected to the time of injection and percentage of injected activity per gram (% IA/g) was calculated for each tissue based on the injected activity into each individual mouse. Injected activity was converted to counts based on the sensitivity of the gamma counter. The counts in tissue were then converted to the percentage of injected activity and this was divided by the mass of tissue to give % IA/g.

2Ig B7-H3 = biological target: T2, 2Ig B7-H3; experiment: SPR binding affinity to 2Ig B7-H3
Calu-6 cell line [1] = experiment: Cell associated (bound) fraction of [177Lu]Lu-labeled peptide in Calu-6 cells; type: cell-based, Human; settings: 1 hour, 37° C.
Procedure, shortened: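 Detached B7-H3-expressing human lung cancer cells at 5 million/mL were exposed for 1 hour at 37 °C to 0.8 μCi of the 177Lu-labelled peptide, which was formulated in 1% PBSA after labelling at 80 °C, pH ~5. Supernatant and two cold washes counted as unbound, and resuspended cells gamma-counted as the cell-associated fraction.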

Calu-6 cell line [2] = experiment: Net internalization of [177Lu]Lu-labeled peptide in Calu-6 cells; type: cell-based, Human; settings: 1 hour, 37° C., glycine pH 2.5 acid wash
Procedure, shortened: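 Calu-6 cells, human non-engineered lung cancer expressing B7-H3, resuspended in 1% PBSA at 5 million cells/mL and incubated with the 177Lu-labeled conjugate (labeled at 80 °C, pH ~5, RP-HPLC checked). Gamma counting of the bound fraction, then of the pellet after two glycine pH 2.5 acid strips and NaOH lysis, gives internalized activity.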

[3] = biological target: Biotinylated human 4Ig B7-H3 (human) (UniProt Q5ZPR3); experiment: SPR 37C; A = KD<=1.0 nM
B7-H3 on Calu-6 cells = biological target: T3, B7-H3 on Calu-6 cells; experiment: 177Lu-labelled peptide on Calu-6 cells, % cell associated fraction; B = 25<%<=50
[4] = SPR KD—37° C., 4Ig B7-H3, 37° C. flow cell temperature
[5] = 37° C., read-out: 2Ig B7-H3_KD (nM) at 37° C.

Molecule	Kd (human 4lg B7-H3) [nM]	kidney uptake (% IA/g) (Calu-6 tumors)	tumor uptake (% IA/g) (Calu-6 tumors)	Kd (2Ig B7-H3) [nM]	% cell associated fraction (Calu-6 cell line [1])	% net internalization (Calu-6 cell line [2])	Kd (human 4lg B7-H3; [4]) [nM]	Kd (2Ig B7-H3; [5]) [nM]	other results
CC(=O)N[C@@H](CCC(C)C)C(=O)N[C@@H](Cc1ccc(O)cc1)C(=O)N[C@H]1CSSC[C@@H](C(=O)N[C@@H](Cc2c[nH]c3ccc(F)cc23)C(=O)N[C@H](C(=O)N[C@H](C(=O)N[C@H](C)C(=O)O)C(C)(C)O)[C@@H](C)c2ccccc2)NC(=O)[C@H](Cc2ccc(O)cc2)NC(=O)[C@H](C(C)C)NC(=O)[C@H](CC(=O)O)NC(=O)[C@H](CC2CCN(C(=O)CCOCCOCCOCCOCCNC(=O)CN3CCN(CC(=O)O)CCN(CC(=O)O)CCN(CC(=O)O)CC3)CC2)NC(=O)[C@H](CC2CCN(CC(=O)O)CC2)NC(=O)CNC(=O)[C@H](C(C)(C)C)NC1=O [compound 526, Ac-hLeu-Y-C-Tbg-G-Pip(CH2COOH)Ala-Pip(PEG4-DOTA)Ala-D-V-Y-C-5FW-[(2S, 3S)beta-Me-Phe]-hydroxyVal-dAla-COOH] (Ac-[hLeu]YC[Tle]G[Ala(1-CH2CO2H-4-piperidyl)][Ala(piperidin-4-yl)]([PEG4-DOTA])DVYC[Trp(5-F)][X1][Val(3-OH)][dA]-OH; disulfide 3-11)	< 1	D (% IA/g > 10 in kidney)	A (0 < % IA/g ≤ 5 in tumor)	380	–	–	–	–	–
CC(=O)N[C@@H](CCC(C)C)C(=O)N[C@@H](Cc1ccc(O)cc1)C(=O)N[C@H]1CSSC[C@@H](C(=O)N[C@@H](Cc2c[nH]c3ccc(F)cc23)C(=O)N[C@H](C(=O)N[C@H](C(=O)N[C@H](CCC(=O)O)C(N)=O)C(C)(C)O)[C@@H](C)c2ccccc2)NC(=O)[C@H](Cc2ccc(O)cc2)NC(=O)[C@H](C(C)C)NC(=O)[C@H](CC(=O)O)NC(=O)[C@H](CC2CCN(C(=O)CCOCCOCCOCCOCCNC(=O)CN3CCN(CC(=O)O)CCN(CC(=O)O)CCN(CC(=O)O)CC3)CC2)NC(=O)[C@H](CC2CCN(CC(=O)O)CC2)NC(=O)CNC(=O)[C@H](C(C)(C)C)NC1=O [compound 496, Ac-hLeu-Y-C-Tbg-G-Pip(CH2COOH)Ala-Pip(PEG4-DOTA)Ala-D-V-Y-C-5FW-[(2S, 3S)beta-Me-Phe]-hydroxyVal-dGlu-CONH2] (Ac-[hLeu]YC[Tle]G[Ala(1-CH2CO2H-4-piperidyl)][Ala(piperidin-4-yl)]([PEG4-DOTA])DVYC[Trp(5-F)][X1][Val(3-OH)][dE]-NH2; disulfide 3-11)	< 1	C (0 < % IA/g ≤ 10 in kidney)	A (0 < % IA/g ≤ 5 in tumor)	526	B (25<%≤50)	A (%≤25)	–	–	–
CC(=O)N[C@@H](CCC(C)C)C(=O)N[C@@H](Cc1ccc(O)cc1)C(=O)N[C@H]1CSSC[C@@H](C(=O)N[C@@H](Cc2c[nH]c3ccc(F)cc23)C(=O)N[C@@H](Cc2ccccc2)C(=O)N[C@H](C(=O)N[C@H](CO)C(N)=O)C(C)(C)O)NC(=O)[C@H](Cc2ccc(O)cc2)NC(=O)[C@H](C(C)C)NC(=O)[C@H](CC(=O)O)NC(=O)[C@H](CC2CCN(C(=O)CCOCCOCCOCCOCCNC(=O)CN3CCN(CC(=O)O)CCN(CC(=O)O)CCN(CC(=O)O)CC3)CC2)NC(=O)[C@H](CCCCN)NC(=O)CNC(=O)[C@H](C(C)(C)C)NC1=O [compound 408, Ac-hLeu-Y-C-Tbg-G-K-Pip(PEG4-DOTA)Ala-D-V-Y-C-5FW-F-hydroxyVal-dSer-CONH2] (Ac-[hLeu]YC[Tle]GK[Ala(piperidin-4-yl)]([PEG4-DOTA])DVYC[Trp(5-F)]F[Val(3-OH)][dS]-NH2; disulfide 3-11)	–	–	–	–	C (%>50)	A (%≤25)	< 1	920	–
CC(=O)N[C@@H](CCC(C)C)C(=O)N[C@@H](Cc1ccc(O)cc1)C(=O)N[C@H]1CSSC[C@@H](C(=O)N[C@@H](Cc2c[nH]c3ccc(F)cc23)C(=O)N[C@@H](Cc2ccccc2)C(=O)N[C@H](C(=O)N[C@H](CCC(=O)O)C(N)=O)C(C)(C)O)NC(=O)[C@H](Cc2ccc(O)cc2)NC(=O)[C@H](C(C)C)NC(=O)[C@H](CC(=O)O)NC(=O)[C@H](CC2CCN(C(=O)CCOCCOCCOCCOCCNC(=O)CN3CCN(CC(=O)O)CCN(CC(=O)O)CCN(CC(=O)O)CC3)CC2)NC(=O)[C@H](CCCCN)NC(=O)CNC(=O)[C@H](C(C)(C)C)NC1=O [compound 410, Ac-hLeu-Y-C-Tbg-G-K-Pip(PEG4-DOTA)Ala-D-V-Y-C-5FW-F-hydroxyVal-dGlu-CONH2] (Ac-[hLeu]YC[Tle]GK[Ala(piperidin-4-yl)]([PEG4-DOTA])DVYC[Trp(5-F)]F[Val(3-OH)][dE]-NH2; disulfide 3-11)	–	–	–	–	B (25<%≤50)	A (%≤25)	< 1	820	–
Ac-[hLeu]YC[Tle]G[Ala(piperidin-4-yl)][Phe(4-COOH)]DVYC[1Nal]FP[dK](DOTA)-NH2 (disulfide 3-11 (inferred)) [Cpd 314]	–	–	–	–	–	–	–	–	KD [3]: < 1 nM
Ac-[hLeu]YCIGK(DOTA)[4Pal]DVYC[Trp(5-F)]F[Val(3-OH)]-NH2 (disulfide 3-11) [Cpd 230]	–	–	–	–	–	–	–	–	% cell associated fraction (B7-H3 on Calu-6 cells): 25 to 50%
